US8933105B2, “Pyrrole compounds” (Takeda Pharmaceutical Company Limited, priority 2007, dated 2015)
Where a name gives a salt, the structure may show the parent alone.

Key:
HepG2 = assay: ATP content test (intracellular ATP content, ATPLite); type: cell-based, Human; settings: HepG2, 30 μM, culture for one day, relative value to control (without addition of drug)
Experimental: (§1) Human liver cancer-derived cell line HepG2 (ATCC No. HB-8065) was passaged using Dulbecco's Modified Eagle medium (DMEM; Invitrogen) containing 10% fetal bovine serum (FBS; TRACE SCIENTIFIC LTD.), 1 mmol/L sodium pyruvate (Invitrogen), 2 mmol/L L-glutamine (Invitrogen), 50 IU/mL penicillin (Invitrogen) and 50 μg/mL streptomycin (Invitrogen) at 5% CO2, 37° C. The test reagent was prepared with DMSO to 10 mM, and further diluted with DMEM medium containing 0.5% FBS, 1 mmol/L sodium pyruvate, 2 mmol/L L-glutamine, 50 IU/mL penicillin and 50 μg/mL streptomycin to a final concentration of DMSO of 0.1%. HepG2 (2×10^4 cells/well) was cultured on a 96 well white plate (Costar) with the test reagent at 5% CO2, 37° C. After culture for one day, the intracellular ATP content was measured using ATPLite™ (PerkinElmer Life Sciences). The results are shown in Table 26 (n≧3, average value±SD) as a relative value (%) to control (without addition of drug) at 30 μM.

[1] = molecular target: T1, proton, potassium-adenosine triphosphatase (H+,K+-ATPase) (Sus scrofa, UniProt P19156); assay: Proton potassium-adenosine triphosphatase (H+,K+-ATPase) inhibitory activity test; type: biochemical; settings: swine gastric microsomal fraction, pH 6.5, 37° C.
T1 construct: a gastric mucous membrane microsomal fraction was prepared from the stomach of swine; from tissue; host or cells: swine stomach, gastric mucous membrane microsomal fraction
T1 sequence (P19156 2-1034 limits assumed): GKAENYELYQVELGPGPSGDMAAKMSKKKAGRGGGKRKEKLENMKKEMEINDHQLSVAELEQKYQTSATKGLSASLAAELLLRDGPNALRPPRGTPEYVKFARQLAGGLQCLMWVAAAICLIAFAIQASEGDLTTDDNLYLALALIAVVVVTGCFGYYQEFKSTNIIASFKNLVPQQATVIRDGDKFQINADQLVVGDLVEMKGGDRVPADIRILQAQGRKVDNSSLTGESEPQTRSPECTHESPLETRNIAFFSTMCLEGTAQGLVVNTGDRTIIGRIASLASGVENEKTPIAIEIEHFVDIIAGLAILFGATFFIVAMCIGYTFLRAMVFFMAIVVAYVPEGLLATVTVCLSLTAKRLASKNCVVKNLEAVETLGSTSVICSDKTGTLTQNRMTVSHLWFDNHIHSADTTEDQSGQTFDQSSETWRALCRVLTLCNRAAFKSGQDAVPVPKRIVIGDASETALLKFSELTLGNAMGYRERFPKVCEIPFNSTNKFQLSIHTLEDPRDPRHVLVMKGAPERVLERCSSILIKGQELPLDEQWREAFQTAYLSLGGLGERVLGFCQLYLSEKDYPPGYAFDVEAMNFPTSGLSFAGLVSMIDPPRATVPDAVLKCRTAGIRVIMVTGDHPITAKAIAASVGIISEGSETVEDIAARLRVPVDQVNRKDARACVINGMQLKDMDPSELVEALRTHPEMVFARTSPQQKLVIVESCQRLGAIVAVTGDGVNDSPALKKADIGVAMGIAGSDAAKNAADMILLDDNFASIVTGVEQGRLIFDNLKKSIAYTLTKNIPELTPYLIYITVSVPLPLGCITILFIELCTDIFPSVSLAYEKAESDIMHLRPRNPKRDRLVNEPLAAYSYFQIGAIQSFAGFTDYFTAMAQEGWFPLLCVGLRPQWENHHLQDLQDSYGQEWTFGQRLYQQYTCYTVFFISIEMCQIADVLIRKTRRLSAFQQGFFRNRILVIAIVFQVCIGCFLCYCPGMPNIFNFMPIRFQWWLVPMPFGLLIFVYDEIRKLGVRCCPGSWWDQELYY
T1 sequence (P18434 whole entry partner): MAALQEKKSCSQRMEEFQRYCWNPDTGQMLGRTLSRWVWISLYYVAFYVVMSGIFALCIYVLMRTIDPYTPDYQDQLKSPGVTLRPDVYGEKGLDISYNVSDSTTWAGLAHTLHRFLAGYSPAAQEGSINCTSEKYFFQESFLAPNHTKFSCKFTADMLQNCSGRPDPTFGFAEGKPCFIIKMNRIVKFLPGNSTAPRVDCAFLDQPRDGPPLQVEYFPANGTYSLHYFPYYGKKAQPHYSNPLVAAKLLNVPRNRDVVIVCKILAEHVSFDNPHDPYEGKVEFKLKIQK
Experimental: Proton Potassium-Adenosine Triphosphatase (H^+,K^+-ATPase) Inhibitory Activity Test
According to the method [Biochim. Biophys. Acta, 728, 31 (1983)] of Wallmark et al., a gastric mucous membrane microsomal fraction was prepared from the stomach of swine. First, the stomach was removed, washed with tap water, immersed in 3 mol/L brine, and the surface of the mucous membrane was wiped with a paper towel. The gastric mucous membrane was detached, chopped, and homogenized in a 0.25 mol/L saccharose solution (pH 6.8) containing 1 mmol/L EDTA and 10 mmol/L tris-hydrochloric acid using polytron (Kinematica). The obtained homogenate was centrifuged at 20,000×g for 30 min and the supernatant was centrifuged at 100,000×g for 90 min. The precipitate was suspended in 0.25 mol/L saccharose solution, superimposed on a 0.25 mol/L saccharose solution containing 7.5% Ficoll, and centrifuged at 100,000×g for 5 hr. The fraction containing the interface between the both layers was recovered, and centrifugally washed with 0.25 mol/L saccharose solution.
The obtained microsomal fraction was used as a proton, potassium-adenosine triphosphatase standard product.
To 40 μL of a 50 mmol/L HEPES-tris buffer (5 mmol/L magnesium chloride, 10 mmol/L potassium chloride, 10 μmol/L valinomycin, pH=6.5) containing 2.5 μg/mL (based on the protein concentration) of the enzyme standard product was added a test compound (5 μL) dissolved in a 10% aqueous dimethyl sulfoxide solution, and the mixture was incubated at 37° C. for 30 min. The enzyme reaction was started by adding 5 μL of a 2 mmol/L adenosine triphosphate tris salt solution (50 mmol/L HEPES-tris buffer (5 mmol/L magnesium chloride, pH 6.5)). The enzyme reaction was carried out at 37° C. for 20 min, and 15 μL of a malachite green solution (0.12% malachite green solution in sulfuric acid (2.5 mol/L), 7.5% ammonium molybdate and 11% Tween 20 were mixed at a ratio of 100:25:2) was added to quench the reaction. After allowing to stand at room temperature for 15 min, the resulting reaction product of inorganic phosphorus with malachite green was calorimetrically determined at a wavelength of 610 nm. In addition, the amount of the inorganic phosphoric acid in the reaction solution free of potassium chloride was measured in the same manner, which was subtracted from the inorganic phosphoric acid amount in the presence of potassium chloride to determine the proton, potassium-adenosine triphosphatase activity. The inhibitory rate (%) was determined from the activity value of the control and the activity values of various concentrations of the test compound, and the 50% inhibitory concentration (IC50) of the proton, potassium-adenosine triphosphatase was determined.

Caspase-3/7 = Caspase-3/7 activity test (Caspase-Glo 3/7 Assay); type: cell-based, Human; settings: HepG2, 30 μM, culture for one day, relative to maximum with Staurosporine (100%) and no test reagent (0%)
Experimental: as §1
Caspase-3/7 Activity Test
The Caspase-3/7 activity in the cells cultured for one day by a method similar to that in Experimental Example 2 was measured using Caspase-Glo 3/7 Assay (Promega). The results are shown in Table 26 (n≧3, average value±SD) as relative activity (%) of each reagent based on the maximum value of Caspase-3/7 activity when exposed to Staurosporine (100%), and the activity without addition of a test reagent (0%).

SMILES	ATP content (%, 30 μM) (HepG2)	IC50 [1]	Caspase-3/7 activity (%, 30 μM) (Caspase-3/7)
CNCc1cn(S(=O)(=O)c2ccoc2)c(-c2cccnc2F)c1F.Cl [Example 50, 1-[4-fluoro-5-(2-fluoropyridin-3-yl)-1-(3-furylsulfonyl)-1H-pyrrol-3-yl]-N-methylmethanamine hydrochloride]	99.8%	60 nM	−0.3%
CNCc1cn(S(=O)(=O)c2cnn(C)c2)c(-c2cccnc2F)c1Cl.O=C(O)/C=C/C(=O)O [Example 58, 1-{4-chloro-5-(2-fluoropyridin-3-yl)-1-[(1-methyl-1H-pyrazol-4-yl)sulfonyl]-1H-pyrrol-3-yl}-N-methylmethanamine fumarate]	98.0%	300 nM	−1.9%
CNCc1cn(S(=O)(=O)c2ccc(CO)o2)c(-c2cccnc2F)c1F [Example 64, [5-({3-fluoro-2-(2-fluoropyridin-3-yl)-4-[(methylamino)methyl]-1H-pyrrol-1-yl}sulfonyl)-2-furyl]methanol 0.5 fumarate]	102.2%	190 nM	−0.1%
CNCc1cn(S(=O)(=O)c2ccc(CF)o2)c(-c2cccnc2F)c1F.O=C(O)/C=C/C(=O)O [Example 66, 1-[4-fluoro-1-{[5-(fluoromethyl)-2-furyl]sulfonyl}-5-(2-fluoropyridin-3-yl)-1H-pyrrol-3-yl]-N-methylmethanamine fumarate]	94.8%	140 nM	−0.2%
CNCc1cn(S(=O)(=O)c2ccc(C#N)o2)c(-c2cccnc2F)c1F.O=C(O)/C=C/C(=O)O [Example 68, 5-({3-fluoro-2-(2-fluoropyridin-3-yl)-4-[(methylamino)methyl]-1H-pyrrol-1-yl}sulfonyl)-2-furonitrile fumarate]	83.4%	170 nM	3.6%
CNCc1cn(S(=O)(=O)c2cnn(C(F)F)c2)c(-c2cccnc2F)c1F.Cl [Example 81, 1-[1-{[1-(difluoromethyl)-1H-pyrazol-4-yl]sulfonyl}-4-fluoro-5-(2-fluoropyridin-3-yl)-1H-pyrrol-3-yl]-N-methylmethanamine hydrochloride]	101.7%	300 nM	−0.2%
CNCc1cn(S(=O)(=O)c2nccs2)c(-c2cccnc2F)c1F.Cl [Example 83, 1-[4-fluoro-5-(2-fluoropyridin-3-yl)-1-(1,3-thiazol-2-ylsulfonyl)-1H-pyrrol-3-yl]-N-methylmethanamine hydrochloride]	96.6%	180 nM	0.3%

Further lines, results first:

ATP content (%, 30 μM) (HepG2)	IC50 [1]	Caspase-3/7 activity (%, 30 μM) (Caspase-3/7)	SMILES
92.7%	130 nM	−0.8%	CNCc1cn(S(=O)(=O)c2cccc(CO)c2)c(-c2cccnc2F)c1F [Example 48, [3-({3-fluoro-2-(2-fluoropyridin-3-yl)-4-[(methylamino)methyl]-1H-pyrrol-1-yl}sulfonyl)phenyl]methanol 0.5 fumarate]
96.8%	65 nM	−0.4%	CNCc1cc(-c2cccnc2Cl)n(S(=O)(=O)c2cccc(C#N)c2)c1.O=C(O)/C=C/C(=O)O [Example 54, 3-({2-(2-chloropyridin-3-yl)-4-[(methylamino)methyl]-1H-pyrrol-1-yl}sulfonyl)benzonitrile fumarate]
88.1%	93 nM	−0.5%	CNCc1cn(S(=O)(=O)c2ccoc2C)c(-c2cccnc2F)c1F.Cl [Example 72, 1-{4-fluoro-5-(2-fluoropyridin-3-yl)-1-[(2-methylfuran-3-yl)sulfonyl]-1H-pyrrol-3-yl}-N-methylmethanamine hydrochloride]
102.0%	98 nM	−0.6%	CNCc1cn(S(=O)(=O)c2ccccn2)c(-c2cccnc2F)c1F.Cl [Example 85, 1-[4-fluoro-5-(2-fluoropyridin-3-yl)-1-(pyridin-2-ylsulfonyl)-1H-pyrrol-3-yl]-N-methylmethanamine hydrochloride]
82.7%	270 nM	0.0%	CNCc1cc(-c2cccnc2C#N)n(S(=O)(=O)c2ccccc2Cl)c1.Cl [Example 99, 3-{1-[(2-chlorophenyl)sulfonyl]-4-[(methylamino)methyl]-1H-pyrrol-2-yl}pyridine-2-carbonitrile hydrochloride]
97.3%	230 nM	−0.5%	CNCc1cc(-c2cccnc2C#N)n(S(=O)(=O)c2ccccc2C#N)c1.Cl [Example 101, 3-{1-[(2-cyanophenyl)sulfonyl]-4-[(methylamino)methyl]-1H-pyrrol-2-yl}pyridine-2-carbonitrile hydrochloride]
